For data set [1], the system named is vaccinia virus. As to the kind of experiment: microbe, parasite or virus in culture. The note with it: HFF cells, 3 days; read-out: Vaccinia Plaque Reduction (IC50). The format is cell-based.
Data set [2] concerns the target T1, human dipeptide transporter, hPept1 (Homo sapiens, UniProt P46059).
T1 sequence (P46059 1-708): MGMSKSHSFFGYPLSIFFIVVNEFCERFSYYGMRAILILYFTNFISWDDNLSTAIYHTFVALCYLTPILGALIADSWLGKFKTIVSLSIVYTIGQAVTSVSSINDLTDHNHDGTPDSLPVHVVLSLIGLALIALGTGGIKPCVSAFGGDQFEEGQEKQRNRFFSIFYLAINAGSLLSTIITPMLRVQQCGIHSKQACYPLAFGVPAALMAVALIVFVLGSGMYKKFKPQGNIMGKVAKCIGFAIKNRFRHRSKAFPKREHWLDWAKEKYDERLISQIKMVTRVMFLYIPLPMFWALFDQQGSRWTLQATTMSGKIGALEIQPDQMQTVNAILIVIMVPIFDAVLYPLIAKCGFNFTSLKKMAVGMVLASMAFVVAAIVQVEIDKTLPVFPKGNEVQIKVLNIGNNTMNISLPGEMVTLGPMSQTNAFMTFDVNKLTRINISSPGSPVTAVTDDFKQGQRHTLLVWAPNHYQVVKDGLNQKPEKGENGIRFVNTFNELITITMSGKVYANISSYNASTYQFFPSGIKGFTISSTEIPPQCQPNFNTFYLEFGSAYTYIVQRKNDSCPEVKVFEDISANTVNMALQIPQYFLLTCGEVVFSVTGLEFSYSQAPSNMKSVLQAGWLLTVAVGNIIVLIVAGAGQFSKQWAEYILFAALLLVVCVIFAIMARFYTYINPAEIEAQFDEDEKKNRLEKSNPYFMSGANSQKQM

For data set [3], the system named is KB cell. As to the kind of experiment: KB cell cytotoxicity. The settings on record: read-out: KB cell cytotoxicity (IC50).

Molecules are shown by their SMILES.

Broadly, the IC50 is the point on the concentration scale where inhibition reaches its midpoint. On to `Nc1ncnc2c1ncn2[C@@H]1O[C@H](COC(=O)[C@@H](N)CC(=O)O)[C@@H](O)[C@@H]1O` [5′-O-L-aspartyl Ara A], for which the IC50 in data set [1] stood at 7 µM; in data set [3] it was 60 µM. In data set [2], the hPepT1/Control is 1.27. Also, the HeLa/hPEPT1 uptake in data set [2] (pH 6) was found to be 5.0 ± 0.2.
